Assay results as given in patent publication US7279598B2, “Process for separating and recovering 3-hydroxypropionic acid and acrylic acid” (priority 2003, dated 2007).

Assay: Extraction of acrylic acid and 3-hydroxypropionic acid from aqueous stock solutions by ethyl acetate (partition between ethyl acetate and aqueous phase)
Type: physicochemical
Conditions: for Partition coefficient, D, average number of partition coefficients listed in Table 2: ethyl acetate / aqueous phase, average over the five stock solutions; for Partition Coefficient, D: ethyl acetate extractant phase / aqueous phase, 22° C.; for Separation Factor, S AA/3HP: partition coefficient of AA divided by that of 3HP
Protocol: The aqueous stock solutions comprise 30% 3-hydroxypropionic acid aqueous solution and 99% acrylic acid.
1. To a 15 ml centrifuge tube 5 ml of each acid stock solution and ethyl acetate extractant were added.
2. […] (rpm designates revolutions per minute).
4. The volumes of the aqueous and ethyl acetate extractant phases in the tubes were recorded.
The processing conditions and experimental results for the extraction of acrylic acid (AA) and 3-hydroxypropionic acid (3HP) by ethyl acetate are reported in the following Table 2.

[1] = Aqueous Stock Solution No. 1 (0.67 wt % AA, 1.34 wt % 3HP)
[2] = Aqueous Stock Solution No. 2 (3.33 wt % AA, 6.67 wt % 3HP)
[3] = Aqueous Stock Solution No. 3 (6.67 wt % AA, 13.34 wt % 3HP)
[4] = Aqueous Stock Solution No. 4 (9.99 wt % AA, 19.98 wt % 3HP)
[5] = Aqueous Stock Solution No. 5 (12.51 wt % AA, 25.05 wt % 3HP)

O=C(O)CCO [3HP, 3-hydroxypropionic acid]
Partition coefficient, D, average number of partition coefficients listed in Table 2: 0.274
Partition Coefficient, D [1]: 0.18
Partition Coefficient, D [2]: 0.21
Partition Coefficient, D [3]: 0.27
Partition Coefficient, D [4]: 0.30
Partition Coefficient, D [5]: 0.41

C=CC(=O)O [AA, acrylic acid]
Partition coefficient, D, average number of partition coefficients listed in Table 2: 2.572
Partition Coefficient, D [1]: 2.96
Partition Coefficient, D [2]: 2.97
Partition Coefficient, D [3]: 2.66
Partition Coefficient, D [4]: 2.36
Partition Coefficient, D [5]: 1.91
Separation Factor, S AA/3HP (Aqueous Stock Solution No. 1): 16.55
Separation Factor, S AA/3HP (Aqueous Stock Solution No. 2): 14.18
Separation Factor, S AA/3HP (Aqueous Stock Solution No. 3): 9.79
Separation Factor, S AA/3HP (Aqueous Stock Solution No. 4): 7.81
Separation Factor, S AA/3HP (Aqueous Stock Solution No. 5): 4.66
